Assay results taken from ChEMBL document CHEMBL1129670, “Synthesis and structure-activity relationships of N-propyl-N-(4-pyridinyl)-1H-indol-1-amine (besipirdine) and related analogs as potential therapeutic agents for Alzheimer's disease” (J Med Chem, 1996).

What was measured:
[1] = molecular target: Muscarinic acetylcholine receptor; format: cell membranes, Membrane
Description: Inhibition of [3H]quinuclidinyl benzilate (QNB) binding from rat forebrain membranes in the absence of Zn

[2] = molecular target: Muscarinic acetylcholine receptor; format: cell membranes, Membrane; remark: listed apart in the source
Description: Inhibition of [3H]quinuclidinyl benzilate (QNB) binding from rat forebrain membranes in the presence of Zn

[3] = molecular target: T1, Acetylcholinesterase (Rattus norvegicus, UniProt P37136)
T1 sequence (P37136 whole entry): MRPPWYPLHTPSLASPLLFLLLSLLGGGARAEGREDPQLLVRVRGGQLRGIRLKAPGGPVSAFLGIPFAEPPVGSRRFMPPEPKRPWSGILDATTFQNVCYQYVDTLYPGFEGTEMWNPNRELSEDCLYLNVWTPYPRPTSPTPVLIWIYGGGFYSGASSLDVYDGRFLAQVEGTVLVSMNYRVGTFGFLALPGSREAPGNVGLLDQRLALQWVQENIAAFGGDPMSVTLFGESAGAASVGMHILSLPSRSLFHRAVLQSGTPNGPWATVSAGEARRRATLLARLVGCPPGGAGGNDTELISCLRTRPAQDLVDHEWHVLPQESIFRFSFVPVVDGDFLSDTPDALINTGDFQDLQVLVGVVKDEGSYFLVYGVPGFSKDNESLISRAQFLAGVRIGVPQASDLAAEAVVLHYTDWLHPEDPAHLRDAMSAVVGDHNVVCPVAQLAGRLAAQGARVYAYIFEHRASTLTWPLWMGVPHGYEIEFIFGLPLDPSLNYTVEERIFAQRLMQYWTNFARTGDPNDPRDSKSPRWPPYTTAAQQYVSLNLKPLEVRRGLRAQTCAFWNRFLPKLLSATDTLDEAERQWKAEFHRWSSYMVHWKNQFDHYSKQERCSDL
Description: Inhibitory activity against acetylcholinesterase in rat striatal preparation

[4] = molecular target: Sodium-dependent noradrenaline transporter (Homo sapiens, UniProt P23975)
Chain of Sodium-dependent noradrenaline transporter (P23975 whole entry): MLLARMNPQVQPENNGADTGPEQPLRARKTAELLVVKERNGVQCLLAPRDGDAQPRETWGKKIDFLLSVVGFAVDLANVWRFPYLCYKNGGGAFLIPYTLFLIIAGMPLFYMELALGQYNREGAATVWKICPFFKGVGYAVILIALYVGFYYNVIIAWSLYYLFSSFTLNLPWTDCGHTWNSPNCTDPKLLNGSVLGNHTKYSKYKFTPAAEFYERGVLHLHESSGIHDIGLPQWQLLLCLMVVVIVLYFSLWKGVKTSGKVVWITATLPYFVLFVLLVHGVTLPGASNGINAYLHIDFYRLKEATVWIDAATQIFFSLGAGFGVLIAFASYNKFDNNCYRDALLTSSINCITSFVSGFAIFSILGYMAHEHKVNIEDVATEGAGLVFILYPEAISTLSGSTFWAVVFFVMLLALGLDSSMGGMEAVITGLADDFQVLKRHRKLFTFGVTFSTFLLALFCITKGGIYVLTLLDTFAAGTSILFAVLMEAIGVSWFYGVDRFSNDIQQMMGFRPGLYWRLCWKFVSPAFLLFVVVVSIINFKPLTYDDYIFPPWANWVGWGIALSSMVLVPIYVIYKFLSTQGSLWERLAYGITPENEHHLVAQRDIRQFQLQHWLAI
Description: Inhibitory activity against norepinephrine (NE) uptake in rat whole brain synaptosome preparation

[5] = species on record: Mus musculus; assay: animal or person
Description: Effective dose against administration in mice

[6] = species on record: Mus musculus

| Structure (SMILES) | IC50 [1] | IC50 [2] | IC50 [3] | IC50 [4] | ED50 [5] | Antagonism [6] |
| --- | --- | --- | --- | --- | --- | --- |
| Brc1ccc2c(ccn2Nc2ccncc2)c1 | 44 µM | 7.5 µM | > 100 µM | > 20 µM | > 20 mg/kg |  |
| O=C(O)/C=C/C(=O)O.c1cnn(Nc2ccncc2)c1 | > 1000 µM | 247 µM | > 100 µM | > 20 µM | > 20 mg/kg |  |
| O=C(O)/C=C/C(=O)O.c1ccc2c(c1)cnn2Nc1ccncc1 | 128 µM | 29 µM | > 100 µM | 17 µM | 3.8 mg/kg | 0 |
| CCCN(c1ccncc1)n1cc(C=O)c2ccccc21 | 3.3 µM | 1.8 µM | 20 µM | 2.2 µM | 18 mg/kg | 0 |
| CCCN(c1ccncc1)n1cccn1.O=C(O)/C=C/C(=O)O | 127 µM | 31 µM | > 100 µM | > 20 µM | > 20 mg/kg |  |
| CCCN(c1ccncc1)n1cc2ccccc2n1 | 91 µM | 15 µM | > 100 µM | 4.7 µM | > 20 mg/kg |  |
| O=C(O)/C=C/C(=O)O.c1ccc2c(c1)c1ccccc1n2Nc1ccncc1 | 20 µM | 8.2 µM | > 100 µM | 1.4 µM | 2.3 mg/kg | 0 |
| C=CCN(c1ccncc1)n1ccc2ccccc21 | 7.3 µM | 1 µM | > 100 µM | 6.2 µM | 4.2 mg/kg | 0 |
| c1ccc2nn(Nc3ccncc3)cc2c1 | 409 µM | 128 µM | > 100 µM | > 20 µM | > 20 mg/kg |  |
| COc1ccc2c(ccn2Nc2ccncc2)c1 | 44 µM | 7.5 µM | > 100 µM | > 20 µM | > 20 mg/kg |  |
| O=[N+]([O-])c1ccc2c(ccn2Nc2ccncc2)c1 | 146 µM | 12 µM | > 100 µM | 9.9 µM | > 20 mg/kg |  |
| Clc1cccc(Cl)c1NC1=NCCN1 [CLONIDINE] |  |  |  | > 20 µM | 0.36 mg/kg | 0 |
| O=C1CCCN1CC#CCN1CCCC1 [OXOTREMORINE] | 2.7 µM | 0.66 µM |  |  |  |  |
| COC(=O)[C@@H]1[C@H]2C[C@H]3c4[nH]c5ccccc5c4CCN3C[C@@H]2CC[C@@H]1O [YOHIMBINE] |  |  |  |  | > 8 mg/kg |  |
